Experimental data taken from patent publication US12161115B2, “Herbicidal compounds” (SYNGENTA CROP PROTECTION AG, priority 2019, dated 2024).

Legend:
Assay type in all cases: in vivo
Setaria faberi (SETFA) [1] = assay: Pre-emergence herbicidal glasshouse test; settings: 250 g/Ha, evaluated after 13 days
Procedure: (§1) Seeds of a variety of test species are sown in standard soil in pots (Lolium perenne (LOLPE), Setaria faberi (SETFA), Alopecurus myosuroides (ALOMY), Echinochloa crus-galli (ECHCG), Avena fatua (AVEFA)). After cultivation for one day (pre-emergence) or after 8 days cultivation (post-emergence) under controlled conditions in a glasshouse (at 24/16° C., day/night; 14 hours light; 65% humidity), the plants are sprayed with an aqueous spray solution derived from the formulation of the technical active ingredient in acetone/water (50:50) solution containing 0.5% Tween 20 (polyoxyethelyene sorbitan monolaurate, CAS RN 9005-64-5). Compounds are applied at 250 g/h. The test plants are then grown in a glasshouse under controlled conditions in a glasshouse (at 24/16° C., day/night; 14 hours light; 65% humidity) and watered twice daily. After 13 days for pre and post-emergence, the test is evaluated for the percentage damage caused to the plant. The biological activities are shown in the following table on a five point scale (5=80-100%; 4=60-79%; 3=40-59%; 2=20-39%; 1=0-19%). NT=not tested.

[2] = tested on: Echinochloa crus-galli (ECHCG); assay: Pre-emergence herbicidal glasshouse test; settings: 250 g/Ha, evaluated after 13 days
Procedure: as §1

[3] = tested on: Alopecurus myosuroides (ALOMY); assay: Pre-emergence herbicidal glasshouse test; settings: 250 g/Ha, evaluated after 13 days
Procedure: as §1

Lolium perenne (LOLPE) [4] = assay: Pre-emergence herbicidal glasshouse test; settings: 250 g/Ha, evaluated after 13 days
Procedure: as §1

Avena fatua (AVEFA) [5] = assay: Pre-emergence herbicidal glasshouse test; settings: 250 g/Ha, evaluated after 13 days
Procedure: as §1

wheat crop plants = assay: Crop phytotoxicity comparison, post-emergence; settings: post-emergence
Procedure: as §1
(§2) Using procedures outlines above, wheat and barley crop plants are treated, post-emergence with compounds A1, A3 or A8 of the present invention or comparator compound C1 (Compound A-38 from WO2014/096289) at the application rates indicated. The compounds were also applied in conjunction with the safener compound cloquintocet-mexyl (CQC) at 50 g/ha.

barley crop plants = assay: Crop phytotoxicity comparison, post-emergence; settings: post-emergence
Procedure: as §1, §2

Setaria faberi (SETFA) [6] = assay: Post-emergence herbicidal glasshouse test; settings: 250 g/Ha, evaluated after 13 days
Procedure: as §1

[7] = tested on: Echinochloa crus-galli (ECHCG); assay: Post-emergence herbicidal glasshouse test; settings: 250 g/Ha, evaluated after 13 days
Procedure: as §1

[8] = tested on: Alopecurus myosuroides (ALOMY); assay: Post-emergence herbicidal glasshouse test; settings: 250 g/Ha, evaluated after 13 days
Procedure: as §1

Lolium perenne (LOLPE) [9] = assay: Post-emergence herbicidal glasshouse test; settings: 250 g/Ha, evaluated after 13 days
Procedure: as §1

Avena fatua (AVEFA) [10] = assay: Post-emergence herbicidal glasshouse test; settings: 250 g/Ha, evaluated after 13 days
Procedure: as §1

CC#Cc1cc(C)c(C2C(=O)CC3(CCN(C(=O)C(C)=NOC)CC3)CC2=O)c(C)c1 [Compound A1, 9-(2,6-dimethyl-4-prop-1-ynyl-phenyl)-3-(2-methoxyiminopropanoyl)-3-azaspiro[5.5]undecane-8,10-dione]
percentage damage caused to the plant, five point scale, SETFA (Setaria faberi (SETFA) [1]): 5 (5=80-100%)
percentage damage caused to the plant, five point scale, ECHCG [2]: 5 (5=80-100%)
percentage damage caused to the plant, five point scale, ALOMY [3]: 5 (5=80-100%)
percentage damage caused to the plant, five point scale, LOLPE (Lolium perenne (LOLPE) [4]): 5 (5=80-100%)
percentage damage caused to the plant, five point scale, AVEFA (Avena fatua (AVEFA) [5]): 5 (5=80-100%)
% phytotoxicity observed, Wheat (wheat crop plants; 30 g/ha): 10%
% phytotoxicity observed, Wheat (wheat crop plants; 60 g/ha): 20%
% phytotoxicity observed, Wheat (wheat crop plants; 60 g/ha + safener cloquintocet-mexyl (CQC) at 50 g/ha): 0%
damage to wheat crop compared to prior art compound C1 (wheat crop plants; summary of Table B3): significantly less damaging
% phytotoxicity observed, Barley (barley crop plants; 30 g/ha): 20%
% phytotoxicity observed, Barley (barley crop plants; 60 g/ha): 40%
damage to barley crop compared to prior art compound C1 (barley crop plants; summary of Table B3): significantly less damaging
percentage damage caused to the plant, five point scale, SETFA (Setaria faberi (SETFA) [6]): 5 (5=80-100%)
percentage damage caused to the plant, five point scale, ECHCG [7]: 5 (5=80-100%)
percentage damage caused to the plant, five point scale, ALOMY [8]: 5 (5=80-100%)
percentage damage caused to the plant, five point scale, LOLPE (Lolium perenne (LOLPE) [9]): 5 (5=80-100%)
percentage damage caused to the plant, five point scale, AVEFA (Avena fatua (AVEFA) [10]): 5 (5=80-100%)
